Data from the CheMixHub viscosity set.
± gives the uncertainty stated by the source.

Assay: xn = mol fraction of the nth substance listed

Oc1ccccc1 + c1ccncc1
viscosity [mPa·s], 101 kPa
Conditions	293.15 K	303.15 K	313.15 K
x1 = 0.0707	1.109 ± 0.011	0.94 ± 0.009	0.828 ± 0.008
x1 = 0.1391	1.321 ± 0.013	1.106 ± 0.011	0.965 ± 0.009
x1 = 0.213	1.597 ± 0.016	1.339 ± 0.013	1.152 ± 0.011
x1 = 0.2888	2.01 ± 0.02	1.634 ± 0.016	1.389 ± 0.013
x1 = 0.349	2.411 ± 0.024	1.963 ± 0.019	1.631 ± 0.016
x1 = 0.4283	3.215 ± 0.032	2.515 ± 0.025	2.042 ± 0.02
x1 = 0.5063	4.37 ± 0.045	3.245 ± 0.034	2.56 ± 0.025
x1 = 0.5971	5.945 ± 0.062	4.29 ± 0.05	3.245 ± 0.032
x1 = 0.6675	7.48 ± 0.08	5.17 ± 0.06	3.8 ± 0.04
x1 = 0.7481	9.07 ± 0.11	6.04 ± 0.07	4.305 ± 0.043
x1 = 0.8284	10.04 ± 0.1	6.625 ± 0.077	4.59 ± 0.05
x1 = 0.9114	10.72 ± 0.15	6.915 ± 0.082	4.705 ± 0.049

CCCCCCn1cc[n+](C)c1.F[B-](F)(F)F + CC(C)O
101 kPa
Conditions	viscosity [mPa·s]
293.15 K, x1 = 0.7711	78.36 ± 13
313.15 K, x1 = 0.08354	1.965 ± 0.23
323.15 K, x1 = 0.238	3.035 ± 0.35
323.15 K, x1 = 0.8507	28.15 ± 2.4

COCCOCCOC + CCOC(=O)OCC
viscosity [mPa·s], 101.33 kPa
Conditions	298.15 K	308.15 K	318.15 K
x1 = 0.0487	0.761 ± 0.01	0.669 ± 0.009	0.572 ± 0.03
x1 = 0.0871	0.774 ± 0.01	0.674 ± 0.009	0.593 ± 0.008
x1 = 0.1367	0.787 ± 0.01	0.68 ± 0.009	0.6 ± 0.008
x1 = 0.18	0.798 ± 0.01	0.687 ± 0.009	0.607 ± 0.008
x1 = 0.2621	0.817 ± 0.01	0.706 ± 0.009	0.618 ± 0.008
x1 = 0.306	0.828 ± 0.011	0.713 ± 0.009	0.626 ± 0.008
x1 = 0.3935	0.849 ± 0.011	0.731 ± 0.01	0.64 ± 0.009
x1 = 0.4303	0.857 ± 0.011	0.739 ± 0.01	0.652 ± 0.009
x1 = 0.4835	0.87 ± 0.011	0.747 ± 0.01	0.656 ± 0.009
x1 = 0.557	0.886 ± 0.011	0.766 ± 0.01	0.665 ± 0.009
x1 = 0.6202	0.899 ± 0.011	0.772 ± 0.01	0.674 ± 0.009
x1 = 0.6549	0.907 ± 0.011	0.783 ± 0.01	0.679 ± 0.009
x1 = 0.7104	0.92 ± 0.012	0.79 ± 0.01	0.687 ± 0.009
x1 = 0.7618	0.933 ± 0.012	0.799 ± 0.01	0.695 ± 0.009
x1 = 0.8134	0.945 ± 0.012	0.809 ± 0.01	0.702 ± 0.009
x1 = 0.8478	0.952 ± 0.012	0.814 ± 0.01	0.707 ± 0.009
x1 = 0.938	0.97 ± 0.012	0.825 ± 0.011	0.719 ± 0.009
x1 = 0.9718	0.979 ± 0.012	0.832 ± 0.011	0.725 ± 0.009
x2 = 0.0073	0.987 ± 0.012	0.837 ± 0.011	0.727 ± 0.009

ClC(Cl)C(Cl)Cl + CCCCCCCC
303.15 K, 101 kPa
Conditions	viscosity [mPa·s]
x1 = 0.1642	0.536 ± 0.013
x1 = 0.2409	0.562 ± 0.012
x1 = 0.3162	0.61 ± 0.013
x1 = 0.3944	0.655 ± 0.013
x1 = 0.4996	0.725 ± 0.012
x1 = 0.5896	0.794 ± 0.012
x1 = 0.6696	0.864 ± 0.012
x1 = 0.7658	0.976 ± 0.012
x1 = 0.8847	1.167 ± 0.012
x1 = 0.9045	1.208 ± 0.013

CC=CC(=O)O + c1ccccc1
viscosity [mPa·s], 101 kPa
Conditions	298.15 K	303.15 K	313.15 K	323.15 K
x1 = 0.0503	0.6275 ± 0.017	0.5854 ± 0.016	0.5132 ± 0.014	0.4526 ± 0.012
x1 = 0.102	0.6591 ± 0.017	0.6129 ± 0.016	0.5349 ± 0.014	0.472 ± 0.013
x1 = 0.1492	0.6902 ± 0.018	0.6364 ± 0.017	0.5555 ± 0.015	0.4889 ± 0.013

Oc1ccccc1 + Cc1cccc(O)c1
298.15 K, 101 kPa
Conditions	viscosity [mPa·s]
x1 = 0.1259	12.5 ± 0.19
x1 = 0.2449	11.69 ± 0.18
x1 = 0.3137	11.31 ± 0.17
x1 = 0.3848	10.95 ± 0.16
x1 = 0.4502	10.7 ± 0.16
x1 = 0.5174	10.4 ± 0.16
x1 = 0.6352	9.961 ± 0.15
x1 = 0.7325	9.698 ± 0.14
x1 = 0.819	9.398 ± 0.14
x1 = 0.8921	9.206 ± 0.13
x1 = 0.9301	9.105 ± 0.13

COCCOCCOC + CCCCCCCCCCCCCCCC
viscosity [mPa·s], 101.33 kPa
Conditions	x1 = 0.1013	x1 = 0.2067	x1 = 0.3071	x1 = 0.403	x1 = 0.5078	x1 = 0.6013	x1 = 0.7004	x1 = 0.7997	x1 = 0.9021
298.15 K	2.629 ± 0.06	2.359 ± 0.054	2.101 ± 0.049	1.9 ± 0.044	1.721 ± 0.041	1.568 ± 0.037	1.4 ± 0.034	1.262 ± 0.031	1.106 ± 0.027
308.15 K	2.107 ± 0.049	1.885 ± 0.044	1.712 ± 0.04	1.552 ± 0.037	1.414 ± 0.034	1.29 ± 0.031	1.173 ± 0.029	1.058 ± 0.026	0.934 ± 0.023
318.15 K	1.69 ± 0.04	1.515 ± 0.036	1.385 ± 0.033	1.288 ± 0.031	1.178 ± 0.029	1.08 ± 0.027	0.984 ± 0.025	0.89 ± 0.023	0.799 ± 0.021
